Reference: patent US9221814B2, “Heterocyclic guanidine F1F0-atpase inhibitors and therapeutic uses thereof” (Lycera Corporation, priority 2012, dated 2015)
Read-outs that look alike come from different tables or passages of the source.

What was measured:
F1F0-ATPase = biological target: T1, F1F0-ATPase (Bos taurus, UniProt P13621); assay: Inhibition of F1F0-ATPase activity in synthesizing ATP (ATP synthesis inhibition); format: biochemical; conditions: detection limit IC50=16 μM, read-out: ATP Syn IC50
T1 construct: from tissue
Experimental: (§1) Exemplary compounds described in above Examples were tested for activity against F1F0-ATPase by measuring the ability of the compounds to inhibit ATP synthesis. In addition, the compounds were assessed for cytotoxicity in Ramos cells. Inhibition of F1F0-ATPase activity in synthesizing ATP and cytotoxicity in Ramos cells were measured according to the procedures described in K. M. Johnson et al. Chemistry & Biology 2005, 12, 485-496.

Ramos cells = assay: Cytotoxicity in Ramos cells; format: cell-based; conditions: detection limit EC50=16 μM, read-out: Ramos Cell EC50
Experimental: as §1

IC50 (F1F0-ATPase)	SMILES	EC50 (Ramos cells)	EC50 (Ramos cells; Homo sapiens)
< 5 µM	Cn1cc(C(=O)/N=C(\Nc2cc(-c3ccc(O)c(F)c3)n[nH]2)Nc2ccc(F)cc2F)c(C(F)(F)F)n1 [Compound A-169]	< 5 µM	
5 to 16 µM	Cn1cc(C(=O)/N=C(/Nc2cccc(O)c2)Nc2cc(-c3ccc(O)c(F)c3)n[nH]2)c(C(F)(F)F)n1 [Compound A-170]	< 5 µM	
< 5 µM	Cn1cc(C(=O)N=C(Nc2cc(-c3ccc(O)c(F)c3)n[nH]2)Nc2ccccc2Cl)c(C(F)(F)F)n1 [Compound A-171]		< 5 µM
5 to 16 µM	Cn1cc(C(=O)/N=C(/Nc2ccc(F)c(C#N)c2)Nc2cc(-c3ccc(O)c(F)c3)n[nH]2)c(C(F)(F)F)n1 [Compound A-172]	> 16 µM	
< 5 µM	Cc1cc(F)ccc1N/C(=N/C(=O)c1cn(C)nc1C(F)(F)F)Nc1cc(-c2ccc(O)c(F)c2)n[nH]1 [Compound A-173]	< 5 µM	
< 5 µM	Cn1cc(C(=O)/N=C(/Nc2cc(F)cc(F)c2)Nc2cc(-c3ccc(O)c(F)c3)n[nH]2)c(C(F)(F)F)n1 [Compound A-174]	< 5 µM	
5 to 16 µM	CC(C)c1ccc(N/C(=N/C(=O)c2cn(C)nc2C(F)(F)F)Nc2cc(-c3ccc(O)c(F)c3)n[nH]2)cc1 [Compound A-175]	< 5 µM	
< 5 µM	Cn1cc(C(=O)/N=C(/Nc2ccc(F)c(F)c2)Nc2cc(-c3ccc(O)c(F)c3)n[nH]2)c(C(F)(F)F)n1 [Compound A-176]	< 5 µM	
< 5 µM	Cn1cc(C(=O)/N=C(\Nc2cc(-c3ccc(O)c(F)c3)n[nH]2)Nc2cccc(Cl)c2F)c(C(F)(F)F)n1 [Compound A-177]	< 5 µM	
5 to 16 µM	Cn1cc(C(=O)/N=C(\Nc2cc(-c3cc(O)ccc3F)n[nH]2)NC(C)(C)C)c(C(F)(F)F)n1 [Compound A-178]	5 to 16 µM	
< 5 µM	CC(C)CN/C(=N/C(=O)c1cn(C)nc1C(F)(F)F)Nc1cc(-c2cc(O)ccc2F)n[nH]1 [Compound A-179]	> 16 µM	
5 to 16 µM	Cn1cc(C(=O)/N=C(/Nc2cc(F)cc(Cl)c2)Nc2cc(-c3cc(O)ccc3F)n[nH]2)c(C(F)(F)F)n1 [Compound A-180]	< 5 µM	
< 5 µM	Cn1cc(C(=O)/N=C(\Nc2cc(-c3cc(O)ccc3Cl)n[nH]2)NC(C)(C)C)c(C(F)(F)F)n1 [Compound A-181]	5 to 16 µM	
< 5 µM	CC(C)CNC(=NC(=O)c1cn(C)nc1C(F)(F)F)Nc1cc(-c2cc(O)ccc2Cl)n[nH]1 [Compound A-182]		5 to 16 µM
< 5 µM	Cn1cc(C(=O)/N=C(/Nc2cc(F)cc(Cl)c2)Nc2cc(-c3cc(O)ccc3Cl)n[nH]2)c(C(F)(F)F)n1 [Compound A-183]	5 to 16 µM	
< 5 µM	Cc1c(Cl)cccc1N/C(=N/C(=O)c1cn(C)nc1C(F)(F)F)Nc1cc(-c2ccc(O)c(F)c2)n[nH]1 [Compound A-184]	< 5 µM	
< 5 µM	Cc1ccccc1N/C(=N/C(=O)c1cn(C)nc1C(F)(F)F)Nc1cc(-c2ccc(O)c(F)c2)n[nH]1 [Compound A-185]	< 5 µM	
5 to 16 µM	Cc1ccc(Cl)cc1N/C(=N/C(=O)c1cn(C)nc1C(F)(F)F)Nc1cc(-c2ccc(O)c(F)c2)n[nH]1 [Compound A-186]	> 16 µM	
< 5 µM	Cc1cc(Cl)ccc1N/C(=N/C(=O)c1cn(C)nc1C(F)(F)F)Nc1cc(-c2ccc(O)c(F)c2)n[nH]1 [Compound A-187]	< 5 µM	

IC50 (F1F0-ATPase)	SMILES	EC50 (Ramos cells)	EC50 (Ramos cells; Homo sapiens)
< 5 µM	Cc1oncc1C(=O)/N=C(\Nc1cc(-c2ccc(F)cc2)n[nH]1)NC(C)(C)C [Compound A-188]	< 5 µM	
< 5 µM	Cn1cc(C(=O)/N=C(/Nc2cc(F)cc(Cl)c2)Nc2cc(-c3ccc(O)c(F)c3)n[nH]2)c(C(F)(F)F)n1 [Compound A-189]	< 5 µM	
< 5 µM	Cc1cc(C(=O)/N=C(\Nc2cc(-c3ccc(F)cc3)n[nH]2)NC(C)(C)C)c(C)o1 [Compound A-190]	5 to 16 µM	
> 16 µM	Cc1nc(C(=O)/N=C(\Nc2cc(-c3ccc(F)cc3)n[nH]2)NC(C)(C)C)c(C)o1 [Compound A-191]	> 16 µM	
< 5 µM	Cc1cc(C(=O)/N=C(/NCC(C)C)Nc2cc(-c3ccc(F)cc3)n[nH]2)c(C)o1 [Compound A-192]	5 to 16 µM	
5 to 16 µM	Cc1nc(C(=O)/N=C(/NCC(C)C)Nc2cc(-c3ccc(F)cc3)n[nH]2)c(C)o1 [Compound A-193]	5 to 16 µM	
> 16 µM	CCOCC(C)N/C(=N/C(=O)c1nc(C)oc1C)Nc1cc(-c2ccc(F)cc2)n[nH]1 (stereo not drawn) [Compound A-194]	< 5 µM	
< 5 µM	Cc1cc(C(=O)/N=C(\Nc2cc(-c3ccc(F)cc3)n[nH]2)NC(C)C)c(C(F)(F)F)o1 [Compound A-195]	5 to 16 µM	
5 to 16 µM	CCC(C)N/C(=N/C(=O)c1nc(C)oc1C)Nc1cc(-c2ccc(F)cc2)n[nH]1 (stereo not drawn) [Compound A-196]	< 5 µM	
5 to 16 µM	CCC(C)N/C(=N/C(=O)c1cc(C)oc1C)Nc1cc(-c2ccc(F)cc2)n[nH]1 (stereo not drawn) [Compound A-197]	5 to 16 µM	
< 5 µM	O=C(/N=C(/NCc1ccc(F)cc1Cl)Nc1cc(C(F)(F)F)n[nH]1)c1nccs1 [Compound A-198]	< 5 µM	
< 5 µM	CCOCCCNC(=NC(=O)c1cc(C)oc1C(F)(F)F)Nc1cc(-c2ccc(F)cc2)n[nH]1 [Compound A-199]		< 5 µM
< 5 µM	CCOCCCN/C(=N/C(=O)c1cc(C)oc1C(F)(F)F)Nc1cc(-c2cc(F)cc(F)c2)n[nH]1 [Compound A-200]	5 to 16 µM	
< 5 µM	CC(C)CN/C(=N/C(=O)c1cn(C)nc1C(F)(F)F)Nc1n[nH]c2cc(Cl)ccc12 [Compound A-201]	> 16 µM	
< 5 µM	COCC(C)NC(=NC(=O)c1cn(C)nc1C(F)(F)F)Nc1n[nH]c2cc(Cl)ccc12 (stereo not drawn) [Compound A-202]	< 5 µM	
< 5 µM	Cc1cc(C(=O)/N=C(/NCC(C)C)Nc2cc(-c3ccc(F)cc3)n[nH]2)c(C(F)(F)F)o1 [Compound A-203]	< 5 µM	
< 5 µM	CCC(C)N/C(=N/C(=O)c1cc(C)oc1C(F)(F)F)Nc1cc(-c2ccc(F)cc2)n[nH]1 (stereo not drawn) [Compound A-204]	< 5 µM	
> 16 µM	CC(C)CN/C(=N/C(=O)c1cn(C)nc1C(F)(F)F)Nc1n[nH]c2cc(F)ccc12 [Compound A-205]	> 16 µM	
5 to 16 µM	Cn1cc(C(=O)/N=C(\Nc2n[nH]c3cc(F)ccc23)NC(C)(C)C)c(C(F)(F)F)n1 [Compound A-206]	< 5 µM	

IC50 (F1F0-ATPase)	SMILES	EC50 (Ramos cells)	EC50 (Ramos cells; Homo sapiens)
> 16 µM	COCC(C)NC(=NC(=O)c1cn(C)nc1C(F)(F)F)Nc1n[nH]c2cc(F)ccc12 (stereo not drawn) [Compound A-207]	> 16 µM	
< 5 µM	CC(C)(C)CN/C(=N/C(=O)c1ccc(Cl)s1)Nc1cc(C(F)(F)F)n[nH]1 [Compound A-208]	< 5 µM	
< 5 µM	O=C(/N=C(\Nc1cc(C(F)(F)F)n[nH]1)NC1CCOCC1)c1ccc(Cl)s1 [Compound A-209]	< 5 µM	
< 5 µM	O=C(/N=C(/Nc1cc(F)cc(Cl)c1)Nc1cc(C(F)(F)F)n[nH]1)c1ccc(Cl)s1 [Compound A-210]	< 5 µM	
< 5 µM	CC(C)(C)N/C(=N/C(=O)c1ccc(Cl)s1)Nc1cc(C(F)(F)F)n[nH]1 [Compound A-211]	< 5 µM	
< 5 µM	CCOC(=O)NC1CCC(N/C(=N\C(=O)c2cc(C)oc2C(F)(F)F)Nc2cc(OC)ccc2C)CC1 (stereo not drawn) [Compound A-212]		5 to 16 µM
< 5 µM	CCOC(=O)NC1CCC(N/C(=N\C(=O)c2cc(C)oc2C(F)(F)F)Nc2ccccc2OC)CC1 (stereo not drawn) [Compound A-213]		> 16 µM
< 5 µM	CCOC(=O)NC1CCC(N/C(=N\C(=O)c2cc(C)oc2C(F)(F)F)Nc2ccccc2C(F)(F)F)CC1 (stereo not drawn) [Compound A-214]		> 16 µM
< 5 µM	CCOC(=O)NC1CCC(N/C(=N\C(=O)c2cc(C)oc2C(F)(F)F)Nc2cc(Cl)ccc2OC)CC1 (stereo not drawn) [Compound A-215]		5 to 16 µM
< 5 µM	CCOC(=O)NC1CCC(N/C(=N\C(=O)c2cc(C)oc2C(F)(F)F)Nc2ccccc2C)CC1 (stereo not drawn) [Compound A-216]		5 to 16 µM
> 16 µM	CCOC(=O)NC1CCC(N/C(=N/C(=O)c2cn(C)nc2C(F)(F)F)Nc2cc(F)cc(F)c2)CC1 (stereo not drawn) [Compound A-217]		> 16 µM
> 16 µM	CCOC(=O)NC1CCC(N/C(=N/C(=O)c2cn(C)nc2C(F)(F)F)NCc2ccc(Cl)c(F)c2)CC1 (stereo not drawn) [Compound A-218]		5 to 16 µM
5 to 16 µM	CCOC(=O)NC1CCC(N/C(=N/C(=O)c2cn(C)nc2C(F)(F)F)Nc2cc(F)cc(Cl)c2)CC1 (stereo not drawn) [Compound A-219]		5 to 16 µM
< 5 µM	Cc1cc(C(=O)/N=C(/Nc2cc(F)cc(Cl)c2)Nc2cc(C(F)(F)F)nn2C(C)C)on1 [Compound A-225]		< 5 µM
< 5 µM	Cc1cc(C(=O)/N=C(/Nc2cc(F)cc(Cl)c2)Nc2c(C)c(C(F)(F)F)nn2CCO)on1 [Compound A-226]		5 to 16 µM
< 5 µM	Cc1cc(C(=O)/N=C(/Nc2cc(F)cc(Cl)c2)Nc2cc(C(F)(F)F)nn2C)on1 [Compound A-228]		< 5 µM
< 5 µM	Cc1cc(C(=O)/N=C(\Nc2ccc(C(F)(F)F)nc2)Nc2cccc(Cl)c2)n(C)n1 [Compound A-230]		< 5 µM
< 5 µM	Cc1cc(C(=O)/N=C(\Nc2ccc(C(F)(F)F)nc2)Nc2cc(F)cc(Cl)c2)on1 [Compound A-231]		< 5 µM
< 5 µM	Cc1cc(C(=O)/N=C(\Nc2ccc(C(F)(F)F)nc2)Nc2cccc(Cl)c2)on1 [Compound A-232]		< 5 µM
